pIC50: −log10 of the molar value. Where a name gives a salt, the structure may show the parent alone.

The test concerns the target T1, TLR7/NFKb HEK cells (Homo sapiens, UniProt Q9NYK1).
T1 construct: expressed in transfected cells; host or cells: HEK cells (TLR7/NFKb reporter line)
T1 sequence (Q9NYK1 27-1049): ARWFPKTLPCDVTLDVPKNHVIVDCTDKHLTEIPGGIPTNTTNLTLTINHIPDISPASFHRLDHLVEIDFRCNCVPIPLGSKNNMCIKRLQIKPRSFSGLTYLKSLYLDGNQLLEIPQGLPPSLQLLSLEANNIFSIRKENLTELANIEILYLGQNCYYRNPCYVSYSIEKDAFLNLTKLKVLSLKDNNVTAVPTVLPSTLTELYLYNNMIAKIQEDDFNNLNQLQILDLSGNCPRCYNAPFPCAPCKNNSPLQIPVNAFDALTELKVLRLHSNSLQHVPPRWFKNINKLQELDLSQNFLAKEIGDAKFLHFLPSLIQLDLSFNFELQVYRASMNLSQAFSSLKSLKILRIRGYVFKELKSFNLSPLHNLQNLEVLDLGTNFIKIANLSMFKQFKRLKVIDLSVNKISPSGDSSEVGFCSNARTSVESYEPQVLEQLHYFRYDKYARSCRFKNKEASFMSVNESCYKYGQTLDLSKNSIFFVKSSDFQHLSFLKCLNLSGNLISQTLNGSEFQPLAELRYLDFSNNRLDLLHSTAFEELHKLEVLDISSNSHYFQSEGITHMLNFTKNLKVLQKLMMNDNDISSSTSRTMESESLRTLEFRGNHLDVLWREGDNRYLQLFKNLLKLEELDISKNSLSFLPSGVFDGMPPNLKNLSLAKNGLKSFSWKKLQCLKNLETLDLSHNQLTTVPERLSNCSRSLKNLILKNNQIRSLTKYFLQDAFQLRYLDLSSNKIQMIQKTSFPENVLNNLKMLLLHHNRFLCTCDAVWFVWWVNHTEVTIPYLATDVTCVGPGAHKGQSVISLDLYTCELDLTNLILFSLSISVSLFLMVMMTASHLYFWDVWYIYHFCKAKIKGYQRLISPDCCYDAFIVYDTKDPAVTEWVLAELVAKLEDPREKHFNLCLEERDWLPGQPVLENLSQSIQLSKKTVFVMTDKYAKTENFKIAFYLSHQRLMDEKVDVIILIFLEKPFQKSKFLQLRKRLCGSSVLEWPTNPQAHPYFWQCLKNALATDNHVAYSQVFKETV
Kind of test: HEK Cell Assay (TLR7/NFKb reporter, Steady-Glo luciferase readout). Type of test: cell-based. The note with it: 30 min compound preincubation, then R*48 agonist for 5 hours, read-out: Potency. The procedure, abridged:
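Steady-Glo luminescence after 5 h stimulation with R*48 agonist, following 30 min compound preincubation. Assay run in HEK cells carrying a TLR7/NFKb luciferase reporter, plated at 5000 cells/well and grown 24 h at 37° C (10% CO2) before treatment.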
Regarding `C[C@H]1C[C@@H](NC2COC2)CN(c2ccc(C#N)c3nccnc23)C1` [Compound 137, 8-[(3S,5R)-3-methyl-5-[(oxetan-3-yl)amino]piperidin-1-yl]quinoxaline-5-carbonitrile], the pIC50 was more than 6.00.
Regarding `CC(C)[C@@H](N)C(=O)N[C@@H]1C[C@H](C)CN(c2ccnc3nccnc23)C1` [Compound 104, (2R)-2-amino-3-methyl-N-[(3R,5S)-5-methyl-1-[pyrido[2,3-b]pyrazin-8-yl]piperidin-3-yl]butanamide], the pIC50 is less than 5.00.
As to `Cc1ncc(N2C[C@@H](C)C[C@@H](NC(=O)CCC(=O)O)C2)c2cccnc12` [Compound 567, N-[(3R,5S)-5-Methyl-1-(8-methyl-[1,7]naphthyridin-5-yl)-piperidin-3-yl]-succinamic acid], the pIC50 is less than 5.00.
Take `O=C(CN1CCCCC1)NCC1CCN(c2ccnc3ccccc23)CC1` [Compound 8, 2-(Piperidin-1-yl)-N-((1-(quinolin-4-yl)piperidin-4-yl)methyl)acetamide]: the pIC50 is 5.00 to 6.00.
For `CCN(CC)CCNC(=O)C1CCN(c2ccc(C(F)(F)F)c3ncccc23)CC1` [Compound 446, 1-(8-Trifluoromethyl-quinolin-5-yl)-piperidine-4-carboxylic Acid (2-diethylamino-ethyl)-amide] the value was more than 6.00; for `C[C@H]1C[C@@H](NC2CCN(C)C2=O)CN(c2ccnc3nccnc23)C1` (stereo partly drawn) [Compound 126, 1-methyl-3-[[(3R,5S)-5-methyl-1-[pyrido[2,3-b]pyrazin-8-yl]piperidin-3-yl]amino]pyrrolidin-2-one], less than 5.00; for `CNCC(=O)N[C@@H]1C[C@H](C)CN(c2ccc(C#N)c3nccnc23)C1` [Compound 28, N-((3R,5S)-1-(8-cyanoquinoxalin-5-yl)-5-methylpiperidin-3-yl)-2-(methylamino)acetamide hydrochloride], more than 6.00.
With `Cc1cc2c(N3C[C@@H](C)O[C@@H](C)C3)ccnc2n1C` [Compound 46, (2S,6R)-4-(1,2-dimethyl-1H-pyrrolo[2,3-b]pyridin-4-yl)-2,6-dimethylmorpholine] the figure was less than 5.00.
`CC(C)(C)CC(=O)N[C@H]1C[C@@H](C(F)(F)F)CN(c2ccc(C#N)c3ncccc23)C1` (relative stereo) [Compound 431, cis-N-[1-(8-Cyano-quinolin-5-yl)-5-trifluoromethyl-piperidin-3-yl]-3,3-dimethyl-butyramide]: the pIC50 was more than 6.00.
For `C[C@H]1C[C@@H](NC(=O)C(O)C2CC2)CN(c2ccc(C(F)(F)F)c3ncccc23)C1` (stereo partly drawn) [Compound 515, 2-Cyclopropyl-2-hydroxy-N-[(3R,5S)-5-methyl-1-(8-trifluoromethyl-quinolin-5-yl)-piperidin-3-yl]-acetamide] the value was more than 6.00; for `C[C@@H]1CN(c2ccnc3nccnc23)C[C@H](C(=O)N[C@@H]2CCCNC2)O1` [Compound 64, (2R,6R)-6-methyl-N—((R)-piperidin-3-yl)-4-(pyrido[2,3-b]pyrazin-8-yl)morpholine-2-carboxamide], 5.00 to 6.00; for `C[C@H]1C[C@@H](NCC(=O)N2CCC2)CN(c2ccc(C(F)(F)F)c3ncccc23)C1` [Compound 568, 1-Azetidin-1-yl-2-[(3R,5S)-5-methyl-1-(8-trifluoromethyl-quinolin-5-yl)-piperidin-3-ylamino]-ethanone], more than 6.00.
`C[C@H]1C[C@@H](NC(=O)C2(O)CC2)CN(c2ccc(C(F)(F)F)c3ncccc23)C1` [Compound 241, 1-hydroxy-N-[(3R,5S)-5-methyl-1-[8-(trifluoromethyl)quinolin-5-yl]piperidin-3-yl]cyclopropane-1-carboxamide]: the pIC50 was more than 6.00.
For the compound `C[C@@H]1CN(c2ccc(C#N)c3ncncc23)C[C@H](C)O1` [Compound 393, cis-5-(2,6-Dimethyl-morpholin-4-yl)-quinazoline-8-carbonitrile], the pIC50 is 5.00 to 6.00.
With `CN1CCCC1C(=O)NCC1CCN(c2ccc(C#N)c3ncccc23)CC1` (stereo not drawn) [Compound 418, 1-Methyl-pyrrolidine-2-carboxylic acid [1-(8-cyano-quinolin-5-yl)-piperidin-4-ylmethyl]-amide] the figure was more than 6.00.
For `CCN(C)CCNC(=O)C1CCN(c2ccc(C#N)c3ncccc23)CC1` [Compound 416, 1-(8-Cyano-quinolin-5-yl)-piperidine-4-carboxylic Acid [2-(ethyl-methyl-amino)-ethyl]-amide] the value was more than 6.00; for `CC(C(=O)N[C@@H]1C[C@H](C)CN(c2ccc(C(F)(F)F)c3ncccc23)C1)N1CC(N)C1` (stereo partly drawn) [Compound 281, 2-(3-aminoazetidin-1-yl)-N-[(3R,5S)-5-methyl-1-[8-(trifluoromethyl)quinolin-5-yl]piperidin-3-yl]propanamide], more than 6.00; for `CN[C@@H]1C[C@H](C)CN(c2ccc(C(F)(F)F)c3ncccc23)C1` [Compound 451, Methyl-[(3R,5S)-5-methyl-1-(8-trifluoromethyl-quinolin-5-yl)-piperidin-3-yl]-amine hydrochloride], more than 6.00.
Consider `C[C@@H]1CN(c2ccc(C#N)c3nccnc23)C[C@H](CN2CCN(C)CC2)O1` [Compound 50, 8-((2R,6S)-2-methyl-6-((4-methylpiperazin-1-yl)methyl)morpholino)quinoxaline-5-carbonitrile], for which the pIC50 was more than 6.00.
For `CN(C)CC(=O)NC1CN(c2ccc(C#N)c3ncccc23)CC(F)(F)C1` (single isomer, unassigned) [Compound 450] the value was 5.00 to 6.00; for `N#Cc1ccc(N2CC(NC(=O)CC3(N)CCCCC3)CC(C(F)(F)F)C2)c2cccnc12` (single isomer, unassigned) [Compound 498], more than 6.00; for `CN(C)CCNC(=O)N1CCN(c2ccc(C#N)c3nccnc23)CC1` [Compound 463, 4-(8-Cyano-quinoxalin-5-yl)-piperazine-1-carboxylic Acid (2-dimethylamino-ethyl)-amide], more than 6.00.
As for `C[C@@H]1C[C@H](C(=O)NCCN2CCN(C)CC2)CN(c2ccc(C#N)c3nccnc23)C1` (relative stereo) [Compound 537, cis-1-(8-Cyano-quinoxalin-5-yl)-5-methyl-piperidine-3-carboxylic acid [2-(4-methyl-piperazin-1-yl)-ethyl]-amide], the pIC50 is more than 6.00.
In the case of `CC(C(=O)N[C@@H]1C[C@H](C)CN(c2ccc(C(F)(F)F)c3nccnc23)C1)N1CC(N)C1` (single isomer, unassigned) [Compound 370], the pIC50 is more than 6.00.
For `C[C@@H]1CN(c2ccnc3nccnc23)C[C@H](CN2CCNCC2)O1` [Compound 48, (2R,6S)-2-methyl-6-(piperazin-1-ylmethyl)-4-(pyrido[2,3-b]pyrazin-8-yl)morpholine] the value was 5.00 to 6.00; for `C[C@H]1C[C@@H](N(C)C(=O)CN(C)C)CN(c2ccc(C(F)(F)F)c3ncccc23)C1` [Compound 452, 2-Dimethylamino-N-methyl-N-[(3R,5S)-5-methyl-1-(8-trifluoromethyl-quinolin-5-yl)-piperidin-3-yl]-acetamide], more than 6.00; for `CC(C)[C@H](O)C(=O)NC1CC(C(F)(F)F)CN(c2ccc(C#N)c3ncccc23)C1` (single isomer, unassigned) [Compound 430], more than 6.00.
For `CC1CC(N)CN(c2ccc(F)c3nccnc23)C1` (single isomer, unassigned) [Compound 339] the value was more than 6.00; for `CC(C(=O)N[C@@H]1C[C@H](C)CN(c2ccc(C(F)(F)F)c3ncccc23)C1)N1CC(F)(F)C1` (stereo partly drawn) [Compound 287, 2-(3,3-difluoroazetidin-1-yl)-N-[(3R,5S)-5-methyl-1-[8-(trifluoromethyl)quinolin-5-yl]piperidin-3-yl]propanamide], more than 6.00; for `C[C@H]1C[C@@H](NC(=O)CN2CC(O)C2)CN(c2ccc(C(F)(F)F)c3ncccc23)C1` [Compound 284], more than 6.00.
With `CCN(CC)CCNCC1CCN(c2ccnc3ccc(F)cc23)CC1` [Compound 375, N,N-Diethyl-N′-[1-(6-fluoro-quinolin-4-yl)-piperidin-4-ylmethyl]-ethane-1,2-diamine] the figure was 5.00 to 6.00; with `NC1CN(c2ccc(C(F)(F)F)c3ncccc23)CC(F)(F)C1` (single isomer, unassigned) [Compound 527], more than 6.00.
As to `CC(C(=O)N[C@@H]1C[C@H](C)CN(c2ccc(C(F)(F)F)c3nccnc23)C1)N1CC(N)C1` (single isomer, unassigned) [Compound 369], the pIC50 was more than 6.00.
